The target of assay [1] is T1, Jak3 (Homo sapiens, UniProt P52333).
T1 construct: Jak3 enzyme (aa 811-1103); expressed in SF9 cells as a GST fusion; GST; made in house; host or cells: SF9 insect cells
The experiment in a line: In vitro Jak3 kinase activity measured by trFRET. It is filed as biochemical. Conditions: Jak3 enzyme aa 811-1103, 0.001 mM ATP. The source says: In Vitro Jak3 Kinase Activity Measured by Time-Resolved Fluorescence Resonance Energy Transfer (trFRET)

Assay [2] has as its target T2, Syk (Homo sapiens, UniProt P43405).
T2 construct: Syk catalytic domain (aa356-635, purified in-house at the Abbott Bioresearch Center); His tag (C); made in house; host or cells: SF9 insect cells
The experiment in a line: In vitro Syk kinase activity measured by trFRET. It is filed as biochemical. Conditions: Syk catalytic domain aa356-635, 0.001 mM ATP. The procedure: In Vitro Syk Kinase Activity Measured by Time-Resolved Fluorescence Resonance Energy Transfer (trFRET)
0.3 nM Syk catalytic domain (aa356-635, purified in-house at the Abbott Bioresearch Center) was mixed with 0.1 μM peptide substrate (biotin-TYR1, Sequence: Biotin-(Ahx)-[…]-COOH) at varying concentrations of inhibitor in reaction buffer: 50 mM MOPSO pH 6.5, 10 mM MgCl2, 2 mM MnCl2, 2.5 mM DTT, 0.01% BSA, 0.1 mM Na3VO4 and 0.001 mM ATP. After about 60 min incubation at rt, the reaction was quenched by addition of EDTA (final concentration: 100 mM) and developed by addition of revelation reagents (final approximate concentrations: 30 mM HEPES pH 7.0, 0.06% BSA, 0.006% Tween-20, 0.24 M KF, 90 ng/mL PT66K (europium labeled anti-phosphotyrosine antibody cat #61T66KLB Cisbio, Bedford, Mass.) and 0.6 μg/mL SAXL (Phycolink streptavidin-allophycocyanin acceptor, cat #PJ52S, Prozyme, San Leandro, Calif.). The developed reaction was incubated in the dark either at about 4° C. for about 14 h or for about 60 min at rt, then read via a time-resolved fluorescence detector (Rubystar, BMG) using a 337 nm laser for excitation and emission wavelength of 665 nm. Within the linear range of the assay, the observed signal at 665 nm is directly related to phosphorylated product and used to calculate the IC50 values.

Here are results for 15 molecules from patent US20120330012A1, “Novel Tricyclic Compounds” (ABBOTT LABORATORIES, priority 2011, published 2012).

T1 sequence (P52333 811-1103): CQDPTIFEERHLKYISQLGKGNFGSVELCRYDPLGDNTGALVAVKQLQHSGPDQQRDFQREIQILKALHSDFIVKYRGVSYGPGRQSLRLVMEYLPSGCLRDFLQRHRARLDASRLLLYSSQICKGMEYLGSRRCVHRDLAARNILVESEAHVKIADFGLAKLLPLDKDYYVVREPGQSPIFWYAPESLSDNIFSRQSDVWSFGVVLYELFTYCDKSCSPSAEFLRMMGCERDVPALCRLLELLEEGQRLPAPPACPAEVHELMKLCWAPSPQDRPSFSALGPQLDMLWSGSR

For `c1cc2c(ncn3nnc(C4CCCCC4)c23)[nH]1` [Example #2, 1-Cyclohexyl-7H-pyrrolo[3,2-e][1,2,3]triazolo[1,5-c]pyrimidine], the IC50 was 1 to 10 µM in assay [1] and greater than 10 µM in assay [2]. As for `N#CC1(C(=O)N2CCC[C@@H](c3nnn4cnc5[nH]ccc5c34)C2)CC1` (single isomer, unassigned) [compound 6], the IC50 in assay [1] lay in the range of 0.1 to 1 µM. Turning to `CS(=O)(=O)c1ccc(-c2nnc3c4cc[nH]c4ncn23)cc1` [Example #9, 3-(4-(Methylsulfonyl)phenyl)-7H-pyrrolo[3,2-e][1,2,4]triazolo[4,3-c]pyrimidine], in assay [2], the IC50 is greater than 10 µM. Molecule `N#CC1(C(=O)N2CCC[C@H](c3nnn4cnc5[nH]ccc5c34)C2)CC1` (single isomer, unassigned) [compound 5] yielded a 50% inhibitory concentration (IC50) in assay [1] of 1 to 10 µM. `CCCNC(=O)c1ccc(Nc2nc3[nH]ccc3c3nccn23)cc1` [Example #7, 4-(7H-Imidazo[1,2-c]pyrrolo[3,2-e]pyrimidin-5-ylamino)-N-propylbenzamide] returned an IC50 in assay [2] greater than 10 µM. On the same count and under the same terms, the value for `c1cc(-c2cc3c(ncn4ccnc34)[nH]2)ccn1` [Example #12, 8-(Pyridin-4-yl)-7H-imidazo[1,2-c]pyrrolo[3,2-e]pyrimidine] was 1 to 10 µM; that for `c1cncc(-c2cn3cnc4[nH]ccc4c3n2)c1` [Example #11, 2-(Pyridin-3-yl)-7H-imidazo[1,2-c]pyrrolo[3,2-e]pyrimidine] was 1 to 10 µM; that for `CC(=O)N1CCCC(c2nc(-c3ccc(C(C)C)cc3)n3cnc4[nH]ccc4c23)C1` (stereo not shown) [Example #13, 1-(3-(3-(4-Isopropylphenyl)-7H-imidazo[1,5-c]pyrrolo[3,2-e]pyrimidin-1-yl)piperidin-1-yl)ethanone] was 1 to 10 µM. Consider `CC(C)(O)c1ccc(-c2cnc3c4cc[nH]c4ncn23)cc1` [Example #10, 2-(4-(7H-Imidazo[1,2-c]pyrrolo[3,2-e]pyrimidin-3-yl)phenyl)propan-2-ol], for which the IC50 in assay [2] was in the range of 0.1 to 1 µM. On the same count and under the same terms, the value for `Brc1cnc2c3cc[nH]c3ncn12` [Example #10, Step D, 3-bromo-7H-imidazo[1,2-c]pyrrolo[3,2-e]pyrimidine] was greater than 10 µM. For the molecule `N#CC1(C(=O)N2CCCC(c3nnn4cnc5[nH]ccc5c34)C2)CC1` (racemic) [Examples #5 and #6, Step E, 1-(3-(7H-Pyrrolo[3,2-e][1,2,3]triazolo[1,5-c]pyrimidin-1-yl)piperidine-1-carbonyl)cyclopropanecarbonitrile], the IC50 in assay [1] was in the range of 1 to 10 µM.

As to `c1cc2c(ncn3cnc(C4CCCCC4)c23)[nH]1` [Example #1, 1-Cyclohexyl-7H-imidazo[1,5-c]pyrrolo[3,2-e]pyrimidine], in assay [2], the half-inhibitory concentration (IC50) was 1 to 10 µM.

`O=C(OCc1ccccc1)N1CCCC(c2ncn3cnc4[nH]ccc4c23)C1` (stereo not shown) [Example #4, Benzyl 3-(7H-imidazo[1,5-c]pyrrolo[3,2-e]pyrimidin-1-yl)piperidine-1-carboxylate]: the IC50 in assay [1] was 1 to 10 µM. The molecule `COc1ccc(-c2nnc3c4cc[nH]c4ncn23)cc1` [Example #8, 3-(4-Methoxyphenyl)-7H-pyrrolo[3,2-e][1,2,4]triazolo[4,3-c]pyrimidine] showed an IC50 in assay [2] greater than 10 µM. For the molecule `CC(C)c1nc(C2CCCN(C(=O)OCc3ccccc3)C2)c2c3cc[nH]c3ncn12` (stereo not shown) [Example #3, Benzyl 3-(3-isopropyl-7H-imidazo[1,5-c]pyrrolo[3,2-e]pyrimidin-1-yl)piperidine-1-carboxylate], the IC50 in assay [1] fell in the range of 1 to 10 µM.
